Measured values published in ChEMBL document CHEMBL1143529, “A general carbometalation, three component coupling strategy for the synthesis of alpha,beta-unsaturated gamma-sultines including thio-rofecoxib, a selective COX-2 inhibitor” (Bioorg Med Chem Lett, 2005).

Tests used:
[1] = target: T1, Prostaglandin G/H synthase 2 (Homo sapiens) (UniProt P35354); test: In vitro percent inhibition of prostaglandin G/H synthase 2 at 100 uM in microsomal enzyme assay
T1 sequence (whole entry): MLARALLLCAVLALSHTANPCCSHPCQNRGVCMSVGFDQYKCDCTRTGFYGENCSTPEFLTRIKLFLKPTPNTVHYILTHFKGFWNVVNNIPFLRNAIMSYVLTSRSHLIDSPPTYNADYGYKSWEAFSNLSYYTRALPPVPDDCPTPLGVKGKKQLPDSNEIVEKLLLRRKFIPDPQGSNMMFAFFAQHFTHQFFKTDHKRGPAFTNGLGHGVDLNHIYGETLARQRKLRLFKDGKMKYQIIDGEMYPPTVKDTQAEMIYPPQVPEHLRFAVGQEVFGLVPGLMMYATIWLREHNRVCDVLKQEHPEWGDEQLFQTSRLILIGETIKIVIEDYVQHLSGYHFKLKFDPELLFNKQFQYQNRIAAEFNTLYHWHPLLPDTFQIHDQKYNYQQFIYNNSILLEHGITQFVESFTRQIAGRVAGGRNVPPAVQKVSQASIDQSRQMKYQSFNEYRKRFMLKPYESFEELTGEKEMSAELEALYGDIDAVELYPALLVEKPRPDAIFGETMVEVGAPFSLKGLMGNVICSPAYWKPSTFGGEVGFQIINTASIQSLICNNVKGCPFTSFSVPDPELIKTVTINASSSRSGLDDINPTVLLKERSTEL

[2] = target: T2, Prostaglandin G/H synthase 2 (Homo sapiens, UniProt P35354); test: In vitro inhibitory concentration against prostaglandin G/H synthase 2 in microsomal enzyme assay
T2 sequence (P35354 whole entry): T1 sequence (whole entry)

inhibition [1]: 13%
IC50 [2]: > 100 µM
Structure (SMILES): CS(=O)(=O)c1ccc(C2=C(c3ccccc3)S(=O)OC2)cc1 (configuration not stated)
